US11389452B2, “Methods for increasing blood plasma 2′-deoxyuridine (dUrd) and thymidylate synthase inhibition” (Isofol Medical AB, priority 2017, dated 2022)

What was measured:
[1] = tested on: TS; conditions: cited from earlier work
[2] = tested on: colorectal cancer; conditions: cited from earlier work
[3] = target: T1, thymidylate synthase (TS) (Homo sapiens, UniProt P04818); experiment: Incremental plasma dUrd (surrogate marker of TS inhibition) 24 hours after bolus 5-FU plus folate in mCRC patients, by LC-MS/MS; type: in vivo; conditions: for Mean (t24 − t0) plasma dUrd: 24 hours
T1 construct: endogenous in cells; host or cells: patients with metastatic colorectal cancer (in vivo); plasma sampled
Description: The safety and efficacy of [6R]-5,10-methylenetetrahydrofolate ([6R]-MTHF) is analyzed in an open-label, multiple-site, Phase I/II Dose Cohort Trial (ISO-CC-005) in patients with stage IV colorectal cancer (mCRC) to determine the safe and tolerable i.v. bolus dose of 6R-MTHF in combination with standard doses of 5-FU (500 mg/m^2) alone or in combination with a fixed dose of Bevacizumab, Oxaliplatin or Irinotecan in patients with stage IV colorectal cancer. Among groups of patients (n≥3) ascending 6R-MTHF doses of 30-240 mg/m^2 BSA are being evaluated in the presence of various permutations of the cytotoxics, 5-FU alone or 5-FU plus oxaliplatin, bevacizumab or irinotecan given at standard dose levels. The study is expected to be completed by year end 2017. A summary of the study design and each study arm is depicted below in Table 1.
In Gothenburg, for almost two decades, clinical, treatment and outcomes data on all patients with CRC have been collected. Plasma and tissue samples have been stored in a biobank under appropriate physical conditions for long term storage. The database and the biobank operate under the auspices of the relevant ethical and regulatory permissions. Patients having been treated with the standard 5-FU dose, 500 mg/m^2 plus i.v. bolus LV, 60 mg/m^2 (equivalent to 30 mg/m^2 of LLV) were randomly drawn from the databank.
The present study is a historical group comparison study. All patients have been treated with a standard dose of 500 mg 5-FU given as a bolus injection plus the respective folate 6R-MTHF or LV also given as bolus injections.
All patients have been measured during two consecutive treatment cycles with 5-FU. Values for dUrd were measured immediately before injection of 5-FU (t0) and after 24 hours (t24). Mean values and standard deviations for differences between t24 and t0 were calculated for the patients on each dose level of 30 and 60 mg/m^2 6R-MTHF, respectively. Some values have also been assayed and calculated for 240 mg/m^26R-MTHF.
Twenty-four patients with metastatic colorectal cancer (mCRC) treated with 5-FU plus 60 mg/m^2 LV were drawn at random from the data base and levels of dUrd were determined at t0 and t24 from two treatment cycles for each patient and the mean values and standard deviations for the differences between t24 and t0 were calculated in the same way as for the 6R-MTHF patients. Since LV is a 50:50 mixture of the natural (1-formyl-tetrahydrofolate) and unnatural (d-formyl-tetrahydrofolate) isomers the active isomer constitutes one half of the LV doses given. The molecular weights for LV and 6R-MTHF are very similar and therefore 60 mg of LV may be considered as equimolar with 30 mg of 6R-MTHF.
The differences between all four groups were tested by means of the Friedman two-way analysis of variance and thereafter the difference between the two equimolar groups LV 60 mg/m^2 and 6R-MTHF 30 mg/m^2 was tested by means of the Mann-Whitney U test. P-values less than 0.05 were considered significant.
Plasma dUrd was determined by a method comprising liquid chromatography followed by tandem mass spectrometry broadly summarized as follows. Plasma samples were removed from −80° C. freezer, trichloroacetic acid was added to the plasma, and the samples mixed and centrifuged. The supernatant was filtered in a 10 kDa molecular weight cut-off membrane filter and again centrifuged for 30 min. The solution at the bottom of the tube was then ready for LC-MS/MS analysis. […]

[4] = tested on: pancreas cancer; conditions: CoFactor combined with 5-FU, phase I/II trial; cited from earlier work

T1 sequence (P04818 2-313 limits assumed): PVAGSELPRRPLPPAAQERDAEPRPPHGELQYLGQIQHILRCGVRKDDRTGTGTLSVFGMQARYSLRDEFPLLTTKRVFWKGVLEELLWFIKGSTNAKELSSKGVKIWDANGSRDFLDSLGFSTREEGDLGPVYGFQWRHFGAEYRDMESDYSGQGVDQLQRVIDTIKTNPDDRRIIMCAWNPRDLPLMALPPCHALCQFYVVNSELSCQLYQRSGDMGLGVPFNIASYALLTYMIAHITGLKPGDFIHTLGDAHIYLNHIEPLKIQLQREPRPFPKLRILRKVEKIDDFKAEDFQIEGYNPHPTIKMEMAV

## Nc1nc2c(c(=O)[nH]1)N1CN(c3ccc(C(=O)N[C@@H](CCC(=O)O)C(=O)O)cc3)C[C@@H]1CN2 (single isomer, unassigned) [(6S)-isomer]
[1]
  effect on the natural [6R]-isomer as co-substrate for TS: partial competitive inhibitor

## O=c1[nH]cc(F)c(=O)[nH]1 [5-FU, 5-Fluorouracil]
[2]; 5-FU alone
  overall response rate: 10-15%

## Nc1nc2c(c(=O)[nH]1)N1CN(c3ccc(C(=O)N[C@@H](CCC(=O)O)C(=O)O)cc3)C[C@H]1CN2 [6R-MTHF, [6R]-5,10-methylenetetrahydrofolic acid]
[3]; 6R-MTHF 30 mg/m2 BSA bolus with 5-FU 500 mg/m2 bolus, 18 cycles
  Mean (t24 − t0) plasma dUrd: 74.7 pmol/mL
[3]; 6R-MTHF 60 mg/m2 BSA bolus with 5-FU 500 mg/m2 bolus, 16 cycles
  Mean (t24 − t0) plasma dUrd: 91.8 pmol/mL
[3]; 6R-MTHF 240 mg/m2 BSA bolus with 5-FU 500 mg/m2 bolus, 4 cycles
  Mean (t24 − t0) plasma dUrd: 99.9 pmol/mL
[3]; [6R]-MTHF 30 mg/m2 vs LV 60 mg/m2, together with 5-FU, p=0.03
  level of dUrd compared with equimolar LV: significantly higher level of dUrd

## Nc1nc(=O)c2c([nH]1)NCC1CN(c3ccc(C(=O)N[C@@H](CCC(=O)[O-])C(=O)[O-])cc3)CN21.[Ca+2] (stereo partly drawn) [CoFactor®, (dl)-5,10,-methylenepteroyl-monoglutamate calcium salt]
[2]; Phase II trial, previously untreated metastatic colorectal cancer
  response rate: 35%
[2]; Phase IIb study in colorectal cancer
  efficacy and safety compared with leucovorin: not demonstrated to be more efficacious than leucovorin
[4]
  clinical benefit (stable disease or tumor response), share of patients: 40%

## Nc1nc(=O)c2c([nH]1)NC[C@H](CNc1ccc(C(=O)N[C@@H](CCC(=O)O)C(=O)O)cc1)N2C=O [LLV]
[3]; active dose 30 mg/m2 BSA LLV, given as 60 mg/m2 d,l-LV bolus, with 5-FU 500 mg/m2 bolus, 48 cycles
  Mean (t24 − t0) plasma dUrd: 48.7 pmol/mL

## Nc1nc2c(c(=O)[nH]1)N(C=O)C(CNc1ccc(C(=O)N[C@@H](CCC(=O)O)C(=O)O)cc1)CN2 (some centres unmarked) [LV, 5-formyl tetrahydrofolate]
[2]; LV added to 5-FU
  overall response rates: over 20%
